Results from PubChem BioAssay AID2060345 (Molecular Pharmacology Branch, DTP, NCI, 2025).
Values joined by “and” are separate entries in the source; they are usually repeats but may differ in a detail not shown here. Equal entries are not always repeated.

System: MALME-3M multicell spheroids, viability
Experiment: Anticancer human tumor MALME-3M cell line growth inhibition [TAK];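 also: spheroids exposed to drugs for seven days before readout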;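 as to viability, T/C: 100% = DMSO vehicle control viability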
Settings: for viability, T/C: stronger effect = lower value
Excerpt: Combinatorial screen of targeted agents with TAK-243 and ipatasertib in multi-cell type tumor spheroids
A high-throughput screen of multi-cell type tumor spheroids was designed to identify active combinations of targeted small molecules and TAK-243 or ipatasertib. Complex spheroids include a stromal component modeled by human endothelial cells (HUVEC) and fibroblasts modeled by human mesenchymal stem cells (MSCs). The concentration ranges selected for each drug and investigational agent were based upon clinically achievable concentrations if the clinical Cmax of the agent was known.
Compounds. The drugs and investigational agents: TAK-243 (785004), ipatasertib (767898), everolimus (733504), selumetinib (741078), bortezomib (756655), trametinib (758246), ixazomib (758254), vemurafenib (761431), dabrafenib (764134), sapanisertib (764658), alpelisib (765974), and copanlisib (816437), were obtained from the National Cancer Institute (NCI) Developmental Therapeutics Program Chemical Repository. The FDA-approved anticancer drug set is available from the NCI Developmental Therapeutics Program. […] The stock solutions were prepared in dimethyl sulfoxide (DMSO, Sigma-Aldrich, St. Louis, MO, cat. D2650) at 800-fold the tested concentration and stored at -70 degrees C prior to their use. All drugs and investigational agents were tested over a range starting from a high concentration at or near the clinical Cmax and decreasing in half-log increments. If the clinical Cmax for an agent had not been determined, the highest concentration tested was 10 microM.
NCI60 Cell Culture. NCI60 cell lines were obtained from the NCI Developmental Therapeutics Program Tumor Repository. For each lot of cells, the Repository performed Applied Biosystems AmpFLSTR Identifiler testing with PCR amplification to confirm consistency with the published Identifier STR profile for each cell line. Cells were kept in continuous culture for no more than 20 passages. The optimal seeding densities for each of the cell lines at each time point assessed were determined prior to performing the concentration response studies. Briefly, the NCI60 human tumor lines were grown as monolayers in RPMI 1640 medium supplemented with 10% FBS and 2 mmol/L L-glutamine.
An additional 2 lines were from the NCI60 cell line panel including melanomas, MALME-3M and SK-MEL-2. Pooled donor human umbilical vein endothelial cells (HUVEC, Lonza, cat. CC-2519) and human mesenchymal stem cells (hMSC, Lonza, cat. PT-2501) were purchased from Lonza (Walkersville, MD).
PDMR cell lines were grown in complete medium (DC medium): Dulbecco's modified Eagle's medium (DMEM)/F12 supplemented with 5% fetal bovine serum (FBS), 2 mM L-glutamine, 100 U/mL penicillin and 100 µg/ml streptomycin, 0.4 µg/ml hydrocortisone, 10 ng/ml epidermal growth factor (EGF) recombinant human protein, 24 µg/mL adenine, and 0.1 mg/mL primocin. During culture from frozen stock vials, PDMR cells were cultured in the same medium containing 10 µM Y-27632 (see Table 3). The PDCs were cultured in complete DMEM/F12 media without 10 microM Y-27632 dihydrochloride for at least two passages prior to the screen. The pooled donor HUVEC and hMSC were cultured in endothelial cell growth medium 2 (PromoCell, Heidelberg, Germany, cat. C-22011) and mesenchymal stem cell growth medium 2 (PromoCell, cat. C-28009), respectively. For all experiments, HUVEC and hMSC were used at passages </=5.
For the pre-screen, cell seeding densities were determined from a titration spanning the range from 5,000 to 313 cells per well. The mct-spheroids including 60% malignant cells, 25% HUVEC and 15% MSC dispensed as a mixture into U-bottom Ultra-Low Attachment 384-well plates (Corning, NY)
High-throughput Drug Combination Screening.
Prior to their inoculation into 384-well plates, malignant cells, HUVEC, and hMSC were removed from T flasks using TrypLE express (Thermo Fisher Scientific, cat. 12605036) and harvested by centrifugation for 5 min at 233 x g. […]

[1] = curve of first compound, second compound 0.3 µM
[2] = curve of first compound, second compound 0.949 µM
[3] = curve of first compound, second compound 3 µM
[4] = curve of first compound, second compound 9.49 µM
[5] = curve of first compound, second compound 30 µM
[6] = second compound 0.3 µM, first compound 0.0316 µM
[7] = second compound 0.3 µM, first compound 0.1 µM
[8] = second compound 0.3 µM, first compound 0.316 µM
[9] = second compound 0.3 µM, first compound 1 µM
[10] = second compound 0.949 µM, first compound 0.0316 µM
[11] = second compound 0.949 µM, first compound 0.1 µM
[12] = second compound 0.949 µM, first compound 0.316 µM
[13] = second compound 0.949 µM, first compound 1 µM
[14] = second compound 3 µM, first compound 0.0316 µM
[15] = second compound 3 µM, first compound 0.1 µM
[16] = second compound 3 µM, first compound 0.316 µM
[17] = second compound 3 µM, first compound 1 µM
[18] = second compound 9.49 µM, first compound 0.0316 µM
[19] = second compound 9.49 µM, first compound 0.1 µM
[20] = second compound 9.49 µM, first compound 0.316 µM
[21] = second compound 9.49 µM, first compound 1 µM
[22] = second compound 30 µM, first compound 0.0316 µM
[23] = second compound 30 µM, first compound 0.1 µM
[24] = second compound 30 µM, first compound 0.316 µM
[25] = second compound 30 µM, first compound 1 µM

SMILES | IC50 [1] [nM] | IC50 [2] [nM] | IC50 [3] [nM] | IC50 [4] [nM] | IC50 [5] [nM] | viability, T/C [6] [%] | viability, T/C [7] [%] | viability, T/C [8] [%] | viability, T/C [9] [%] | viability, T/C [10] [%] | viability, T/C [11] [%] | viability, T/C [12] [%] | viability, T/C [13] [%] | viability, T/C [14] [%] | viability, T/C [15] [%] | viability, T/C [16] [%] | viability, T/C [17] [%] | viability, T/C [18] [%] | viability, T/C [19] [%] | viability, T/C [20] [%] | other results
COc1c(OCCCN2CCOCC2)ccc2c3n(c(=NC(=O)c4cnc(N)nc4)nc12)CCN3 + CC(C)NCC(C(=O)N1CCN(c2ncnc3c2C(C)CC3O)CC1)c1ccc(Cl)cc1 | 125 | 109 | 66.2 | 41.4 | 5.9 | 76.3 | 62.2 | 23.1 | 12.3 | 76.2 | 55.3 | 22.3 | 11.7 | 63.1 | 43.6 | 16.7 | 10.6 | 54.2 | 31.3 | 15.3 | viability, T/C (second compound 0.3 µM, first compound 0.00316 µM): 109%; viability, T/C (second compound 0.3 µM, first compound 0.01 µM): 96.3%; viability, T/C (second compound 0.949 µM, first compound 0.00316 µM): 98.4%; viability, T/C (second compound 0.949 µM, first compound 0.01 µM): 95%; viability, T/C (second compound 3 µM, first compound 0.00316 µM): 82.3%; viability, T/C (second compound 3 µM, first compound 0.01 µM): 81.8%; viability, T/C (second compound 9.49 µM, first compound 0.00316 µM): 69.8%; viability, T/C (second compound 9.49 µM, first compound 0.01 µM): 72.8%; viability, T/C [21]: 11.8%; viability, T/C (second compound 30 µM, first compound 0.00316 µM): 45.8%; viability, T/C (second compound 30 µM, first compound 0.01 µM): 56.7%; viability, T/C [22]: 39.3%; viability, T/C [23]: 26.5%; viability, T/C [24]: 10.6%; viability, T/C [25]: 6.33%
Cc1nc(NC(=O)N2CCCC2C(N)=O)sc1-c1ccnc(C(C)(C)C(F)(F)F)c1 (configuration not stated) + CC(C)NCC(C(=O)N1CCN(c2ncnc3c2C(C)CC3O)CC1)c1ccc(Cl)cc1 | > 10000 | > 10000 | > 10000 | 4310 | 355 | 110 | 104 | 97.7 | 88.1 | 107 | 103 | 86.3 | 90.7 | 94.3 | 88.6 | 79.3 | 75.2 | 79.4 | 73 | 67.1 | viability, T/C (second compound 0.3 µM, first compound 3.16 µM): 72.5%; viability, T/C (second compound 0.3 µM, first compound 10 µM): 59.1%; viability, T/C (second compound 0.949 µM, first compound 3.16 µM): 75.5%; viability, T/C (second compound 0.949 µM, first compound 10 µM): 55.4%; viability, T/C (second compound 3 µM, first compound 3.16 µM): 73.8%; viability, T/C (second compound 3 µM, first compound 10 µM): 53%; viability, T/C [21]: 67.5%; viability, T/C (second compound 9.49 µM, first compound 3.16 µM): 54.8%; viability, T/C (second compound 9.49 µM, first compound 10 µM): 37.4%; viability, T/C [22]: 56.3%; viability, T/C [23]: 59.1%; viability, T/C [24]: 47.1%; viability, T/C [25]: 42%; viability, T/C (second compound 30 µM, first compound 3.16 µM): 40%; viability, T/C (second compound 30 µM, first compound 10 µM): 22%
Cn1cnc2c(F)c(Nc3ccc(Br)cc3Cl)c(C(=O)NOCCO)cc21 | – | – | – | – | – | – | – | – | – | – | – | – | – | – | – | – | – | – | – | – | viability, T/C (compound 0.00949 µM): 82.6% and 84.7%; viability, T/C (compound 0.03 µM): 49% and 52.6%; viability, T/C (compound 0.0949 µM): 22% and 21.7%; viability, T/C (compound 0.3 µM): 15.4% and 16.9%; viability, T/C (compound 0.949 µM): 12%; viability, T/C (compound 3 µM): 5.64% and 5.37%; IC50 (curve of compound): 28.2 nM and 32 nM
